According to PubChem BioAssay (NCI):
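Grown in 96-well plates, cells were treated for 48 hours with each compound at five concentrations. Insufficient inhibition: endpoint recorded as highest concentration tested. GI50: concentration for 50% inhibition of growth. TGI marks complete inhibition of growth.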

Columns and labels:
Experiment in all cases: inhibition of tumour cell growth, NCI panel, 48 h
SNB-75 CNS = tested on: SNB-75 CNS
SF-295 CNS = tested on: SF-295 CNS
U251 CNS = tested on: U251 CNS
NCI-H460 lung = tested on: NCI-H460 lung
KM12 colon = tested on: KM12 colon
NCI-H226 lung = tested on: NCI-H226 lung
A498 renal = tested on: A498 renal
SNB-19 CNS = tested on: SNB-19 CNS
OVCAR-5 ovarian = tested on: OVCAR-5 ovarian
TK-10 renal = tested on: TK-10 renal

Compound	GI50 (SNB-75 CNS)	TGI (SNB-75 CNS)	GI50 (SF-295 CNS)	TGI (SF-295 CNS)	GI50 (U251 CNS)	TGI (U251 CNS)	GI50 (NCI-H460 lung)	TGI (NCI-H460 lung)	GI50 (KM12 colon)	TGI (KM12 colon)	GI50 (NCI-H226 lung)	TGI (NCI-H226 lung)	GI50 (A498 renal)	TGI (A498 renal)	GI50 (SNB-19 CNS)	TGI (SNB-19 CNS)	GI50 (OVCAR-5 ovarian)	TGI (OVCAR-5 ovarian)	GI50 (TK-10 renal)	TGI (TK-10 renal)
COCCOC(=O)CCn1cc(F)c(=O)[nH]c1=O	88.4 µg/mL	> 150 µg/mL	33.2 µg/mL	> 150 µg/mL	51 µg/mL	> 150 µg/mL	0.821 µg/mL	> 150 µg/mL	5.93 µg/mL	> 150 µg/mL	119 µg/mL	> 150 µg/mL	0.989 µg/mL	> 150 µg/mL	41.6 µg/mL	> 150 µg/mL	122 µg/mL	> 150 µg/mL	6.77 µg/mL	> 150 µg/mL
COc1cc(C=NCC(=O)CSC(c2ccccc2)c2ccccc2)cc(OC)c1OC	25.5 µM	> 100 µM	11.5 µM	58.2 µM	32.2 µM	> 100 µM	13 µM	> 100 µM	25.3 µM	82.1 µM	17.9 µM	> 100 µM	5.98 µM	38 µM	30 µM	> 100 µM	63.5 µM	> 100 µM	14.5 µM	79.1 µM
CC(Cl)CC(=O)Nc1ccc2c(c1)oc(=O)c1cc(NC(=O)CC(C)Cl)ccc12 (stereo not given)	15.1 µM	48.7 µM	10.1 µM	36.5 µM	11.1 µM	23.7 µM	13.7 µM	40.9 µM	7.44 µM	24.4 µM	23.6 µM	> 100 µM	16.1 µM	38 µM	20.4 µM	69.7 µM	16.8 µM	46.3 µM	10.1 µM	23.8 µM
O=C1CCC(c2ccccc2)(c2ccccc2)CC1		> 100 µM		> 100 µM		> 100 µM		> 100 µM		> 100 µM		> 100 µM		> 100 µM		> 100 µM		> 100 µM		> 100 µM
CCNC1=CC(=O)c2ncccc2C1=O	1.19 µM	2.45 µM	1.23 µM	2.56 µM	2.49 µM	13.6 µM	0.439 µM	2 µM	3.25 µM	15.1 µM	1.85 µM	4.42 µM	1.24 µM	2.87 µM	1.59 µM	6.7 µM	1.79 µM	3.47 µM	15.6 µM	29.7 µM
NC(=O)c1ccc(NC(=O)c2oc3ccccc3c2-c2cnn(-c3ccccc3)c2)cc1	1.89 µM	8.31 µM	> 35.5 µM	> 100 µM	5.42 µM	> 100 µM	> 100 µM	> 100 µM	> 100 µM	> 100 µM	2.98 µM	> 100 µM	60.8 µM	> 100 µM	8.98 µM	> 100 µM	> 100 µM	> 100 µM	> 23.3 µM	> 100 µM
O=[N+]([O-])C(=C(c1ccccc1)c1ccccc1)[N+](=O)[O-]		28.5 µM		26.3 µM		26.4 µM		21 µM		30.2 µM		61.5 µM		28.6 µM		31.3 µM		34.5 µM		33.2 µM
Cc1ccc(C)c(NC(=O)CCc2n[nH]c(=S)o2)c1		> 100 µM		> 100 µM		> 100 µM		> 100 µM		> 100 µM		> 100 µM		> 100 µM		> 100 µM		> 100 µM		> 100 µM
COc1cc(C(=O)c2c(-c3ccccc3)oc3ccccc23)cc(OC)c1O	0.231 µM	2.22 µM	2.41 µM	6.94 µM	3.21 µM	16.1 µM	2.22 µM	10.7 µM	3.99 µM	16.5 µM	8.14 µM	37.2 µM	2.09 µM	5.76 µM	6.76 µM	21.7 µM	4.64 µM	32.6 µM	20.5 µM	> 100 µM
COc1ccc2c3c([nH]c2c1)[C@H]1C[C@H]2[C@H](C[C@@H](O)[C@H](OC)[C@H]2C(=O)O)CN1CC3		> 100 µM		> 100 µM		> 100 µM		> 100 µM		> 100 µM		> 100 µM		> 100 µM		> 100 µM		> 100 µM		> 100 µM
N#CC(/C(=N\NC(N)=S)C(=O)NC1C2CC3CC(C2)CC1C3)c1ccc(Cl)cc1 (stereo not given)		> 100 µM		> 100 µM		> 100 µM		> 100 µM		> 100 µM		> 100 µM		> 100 µM		> 100 µM		> 100 µM		> 100 µM
Nc1ccccc1C#Cc1ccccc1C#CCCCCO	11.3 µM	33.6 µM	29.2 µM	81.2 µM	22.6 µM	47.1 µM	30.5 µM	> 100 µM	16.9 µM	48.4 µM	27.4 µM	61.3 µM	21.9 µM	77.8 µM	35.7 µM	> 100 µM	25.6 µM	64.4 µM	27.5 µM	91.5 µM
CC(C)S(=O)(=O)n1c(N)nc2ccc(/C(=N/O)c3ccccc3)cc21		47.7 µM		> 100 µM		> 100 µM		> 100 µM		45.8 µM		23.4 µM		31.7 µM		> 100 µM		58.7 µM		> 100 µM
C/C(=N\N=C(N)N)c1sc(-c2nc(C)c(/C(C)=N/N=C(N)N)s2)nc1C		> 100 µM		> 100 µM		> 100 µM		> 100 µM		> 100 µM		> 100 µM		> 100 µM		> 100 µM		> 100 µM		> 100 µM
COCCOCCOCCOCCOc1ccc2c(c1)C(=O)c1nc3ncccc3c(=O)n1-2	2.07 µM	3.65 µM	0.351 µM	1.4 µM	1.29 µM	2.56 µM	0.4 µM	1.39 µM	1.22 µM	2.71 µM	1.65 µM	3.31 µM	1.77 µM	3.16 µM	1.28 µM	2.64 µM	1.78 µM	3.16 µM	1.29 µM	2.69 µM
